Laboratory results: patent US10130616B2, “Securinine and norsecurinine analogue compounds for the treatment of myeloid disorders” (Case Western Reserve University, priority 2013, dated 2018)
Read-outs that look alike come from different tables or passages of the source.

How the values were obtained:
HL-60 cells = assay: Growth of HL-60 cells (IC50); type: cell-based, human; settings: Homo sapiens, HL-60, HL-60 cells; value bracketed between tested concentrations; read-out: HL-60, IC50
HL-60 leukemic cells = assay: Nitroblue Tetrazolium (NBT) reduction assay, differentiation of HL-60 leukemic cells; type: cell-based, human; settings: Homo sapiens
Excerpt: In an aspect of the present disclosure, the compounds of the disclosure can be identified using a novel high-throughput screen that is biased to identify agents that have both a high potency and low toxicity in a myeloid disorder disease model, such as an animal or cell model. In some embodiments, the high-throughput screen measures the differentiation of HL-60 leukemic cells using a quantitative nitroblue tetrazolium (NBT) reduction assay. Screening HL-60 cells, human promyelocytic cells, is advantageous as they have been used extensively as a cell line to study myeloid differentiation. Though promyelocytic cells, HL-60 cells were derived from a patient with acute myeloblastic leukemia with maturation, FAB-M2.
This technique has also been widely exploited in HL-60 cells to analyze myelomonocytic differentiation.
The NBT screen works due to changes in the oxidoreductases during differentiation that lead to increases in rates of NBT reduction. NBT is reduced due to the production of superoxide that is catalyzed by an NADPH oxidase. […] NBT is reduced by superoxide from a soluble yellow compound to insoluble blue formazan granules whose formation can be monitored spectrophotometrically at 560 nm as the unreduced dye has minimal absorbance at this wavelength. A quantitative NBT reduction assay is ideal for this type of screen as it is simple, sensitive, quantitative, requires minimal cells, has been proven to have low well to well variability, and the amount of reduced NBT is proportional to the number of cells reducing the dye as well as the amount reduced by each cell.
To discover novel AML differentiation-inducing compounds a rapid high-throughput screen (HTS) was developed and optimized. The screen was designed to be biased to identify compounds that, unlike the majority of known differentiation-inducing agents, have both high potency and low toxicity. The screen measured the differentiation of HL-60 leukemic cells using a quantitative Nitroblue Tetrazolium (NBT) reduction assay, a test that is used extensively as a measure of functional myelomonocytic differentiation. The basis for the screen is unreduced NBT exists as a yellow soluble dye. Differentiated leukemic cells are capable of producing a respiratory burst that can reduce NBT into a blue insoluble compound that can be measured spectrophotometrically. This forward chemical genetics approach allowed the discovery of novel compounds that can act on targets not previously known to be “drugable.” As only live cells can reduce NBT, the screen is biased in identifying relatively nontoxic compounds.
To perform the screen, duplicate plates of HL-60 cells were cultured at a density of 5×10^4 cells/mL with 10 μM of each compound in 96 well plates for 5 days. To determine the relative capability for a compound to induce differentiation compared to known potent inducers, each plate destined for the NBT reduction assay included wells with 0.1% DMSO (vehicle control) and 1 μM ATRA. This approach eliminates any slight day to day variation in NBT reduction values and allows the discovery of compounds with similar or greater efficacy to ATRA. Differentiation was determined in the 96 well plates by incubating the cells with 1 mg/mL of NBT and 200 ng/mL of PMA as the stimulant for the respiratory burst for 35 minutes at 37° C. The reaction was then stopped with HCl and the formazan solubilized with DMSO. Finally, the reaction mixture was read spectrophotometrically at 560 nm in a plate reader.
The securinine and norsecurinine analogues were tested and evaluated on their abilities to affect differentiation and growth of HL-60 cells (Table 1).

[1] = HL-60 cells, value bracketed between tested concentrations, read-out: HL-60, Dif50

[N-]=[N+]=Nc1ccc(C#CC2=C[C@@H]3C[C@@]4(OC(=O)C=C24)[C@H]2CCCCN32)cc1 [Compound 54]
IC50 (HL-60 cells): 0.31 µM

Nc1ccc(C#CC2=C[C@@H]3C[C@@]4(OC(=O)C=C24)[C@H]2CCCCN32)cc1 [Compound 63]
IC50 (HL-60 cells): 0.156 µM

O=C1C=C2CC(SC34CC5CC(CC(C5)C3)C4)[C@@H]3C[C@@]2(O1)[C@H]1CCCCN31 (stereo partly drawn) [Compound 66]
EC50 (HL-60 leukemic cells; [1]): > 30 µM

O=C1C=C2CC(SCC(F)(F)F)[C@@H]3C[C@@]2(O1)[C@H]1CCCCN31 (stereo partly drawn) [Compound 67]
EC50 (HL-60 leukemic cells; [1]): 20 to 30 µM

O=C1C=C2CC(N3CCC(F)(F)C3)[C@@H]3C[C@@]2(O1)[C@H]1CCCCN31 (stereo partly drawn) [Compound 68]
EC50 (HL-60 leukemic cells; [1]): > 30 µM

O=C1C=C2CC(SCc3cccs3)[C@@H]3C[C@@]2(O1)[C@H]1CCCCN31 (stereo partly drawn) [Compound 69]
EC50 (HL-60 leukemic cells; [1]): 20 to 30 µM

O=C1C=C2CC(SCC3CCCCCC3)[C@@H]3C[C@@]2(O1)[C@H]1CCCCN31 (stereo partly drawn) [Compound 70]
EC50 (HL-60 leukemic cells; HL-60, read-out: HL-60, Dif50): 10 to 15 µM

CCCCCCCSC1CC2=CC(=O)O[C@@]23C[C@@H]1N1CCCC[C@@H]13 (stereo partly drawn) [Compound 71]
EC50 (HL-60 leukemic cells; HL-60, read-out: HL-60, Dif50): 20 to 30 µM

CCCCSC1CC2=CC(=O)O[C@@]23C[C@@H]1N1CCCC[C@@H]13 (stereo partly drawn) [Compound 72]
EC50 (HL-60 leukemic cells; [1]): 20 to 30 µM

CCN(CC)CCSC1CC2=CC(=O)O[C@@]23C[C@@H]1N1CCCC[C@@H]13 (stereo partly drawn) [Compound 73]
EC50 (HL-60 leukemic cells; [1]): 10 to 15 µM

CCCSC1CC2=CC(=O)O[C@@]23C[C@@H]1N1CCCC[C@@H]13 (stereo partly drawn) [Compound 74]
EC50 (HL-60 leukemic cells; [1]): 15 to 20 µM

CC(C)SC1CC2=CC(=O)O[C@@]23C[C@@H]1N1CCCC[C@@H]13 (stereo partly drawn) [Compound 75]
EC50 (HL-60 leukemic cells; [1]): 15 to 20 µM

NCCSC1CC2=CC(=O)O[C@@]23C[C@@H]1N1CCCC[C@@H]13 (stereo partly drawn) [Compound 77]
EC50 (HL-60 leukemic cells; [1]): 10 to 15 µM

O=C(CCCC[C@@H]1SC[C@@H]2NC(=O)N[C@@H]21)NCCS[C@H]1CC2=CC(=O)O[C@@]23C[C@@H]1N1CCCC[C@@H]13 [Compound 78]
EC50 (HL-60 leukemic cells; [1]): 10 to 15 µM

O=C1C=C2CC(NCC3CC3)[C@@H]3C[C@@]2(O1)[C@H]1CCCCN31 (stereo partly drawn) [Compound 79]
EC50 (HL-60 leukemic cells; [1]): 10 to 15 µM

O=C1C=C2CC(NC3CC3)[C@@H]3C[C@@]2(O1)[C@H]1CCCCN31 (stereo partly drawn) [Compound 80]
EC50 (HL-60 leukemic cells; [1]): 20 to 30 µM

O=C1C=C2CC(NC3CCCC3)[C@@H]3C[C@@]2(O1)[C@H]1CCCCN31 (stereo partly drawn) [Compound 81]
EC50 (HL-60 leukemic cells; [1]): 10 to 15 µM

O=C1C=C2CC(NC3CCCCC3)[C@@H]3C[C@@]2(O1)[C@H]1CCCCN31 (stereo partly drawn) [Compound 82]
EC50 (HL-60 leukemic cells; [1]): 15 to 20 µM

O=C1C=C2CC(NC3CCCCCC3)[C@@H]3C[C@@]2(O1)[C@H]1CCCCN31 (stereo partly drawn) [Compound 83]
EC50 (HL-60 leukemic cells; [1]): > 30 µM

O=C1C=C2CC(NC3CCCCCCC3)[C@@H]3C[C@@]2(O1)[C@H]1CCCCN31 (stereo partly drawn) [Compound 84]
EC50 (HL-60 leukemic cells; [1]): > 30 µM

O=C1C=C2CC(NC3CC(O)C3)[C@@H]3C[C@@]2(O1)[C@H]1CCCCN31 (stereo partly drawn) [Compound 85]
EC50 (HL-60 leukemic cells; [1]): 10 to 15 µM

COc1ccc(CN[C@H]2CC3=CC(=O)O[C@@]34C[C@@H]2N2CCCC[C@@H]24)cc1 [Compound 86]
EC50 (HL-60 leukemic cells; [1]): 15 to 20 µM

O=C1C=C2C[C@H](S(=O)(=O)c3ccccc3)[C@@H]3C[C@@]2(O1)[C@H]1CCCCN31 [Compound 88]
EC50 (HL-60 leukemic cells; [1]): 5 to 7.5 µM

O=C1C=C2CC(n3cnc4ccccc43)[C@@H]3C[C@@]2(O1)[C@H]1CCCCN31 (stereo partly drawn) [Compound 91]
EC50 (HL-60 leukemic cells; [1]): > 30 µM

O=C1C=C2CC(n3nnc4ccccc43)[C@@H]3C[C@@]2(O1)[C@H]1CCCCN31 (stereo partly drawn) [Compound 92]
EC50 (HL-60 leukemic cells; [1]): 20 to 30 µM

O=C1C=C2CC(SCc3ccccc3)[C@@H]3C[C@@]2(O1)[C@H]1CCCCN31 (stereo partly drawn) [Compound 93]
EC50 (HL-60 leukemic cells; HL-60, read-out: HL-60, Dif50): > 30 µM

O=C1C=C2CC(SCc3ccccc3O)[C@@H]3C[C@@]2(O1)[C@H]1CCCCN31 (stereo partly drawn) [Compound 94]
EC50 (HL-60 leukemic cells; HL-60, read-out: HL-60, Dif50): 15 to 20 µM

CC(C)(C)OC(=O)NCCSC1CC2=CC(=O)O[C@@]23C[C@@H]1N1CCCC[C@@H]13 (stereo partly drawn) [Compound 95]
EC50 (HL-60 leukemic cells; [1]): 15 to 20 µM

CSC1CC2=CC(=O)O[C@@]23C[C@@H]1N1CCCC[C@@H]13 (stereo partly drawn) [Compound 96]
EC50 (HL-60 leukemic cells; HL-60, read-out: HL-60, Dif50): 10 to 15 µM

O=C1C=C2CC(SC3CCCC3)[C@@H]3C[C@@]2(O1)[C@H]1CCCCN31 (stereo partly drawn) [Compound 97]
EC50 (HL-60 leukemic cells; HL-60, read-out: HL-60, Dif50): 15 to 20 µM
